One experiment has as its system TNF-α. Kind of experiment: Cell-based TNF-α inhibition assay in LPS-induced PBMCs (Meso Scale). To be noted: PBMC, PBMCs pretreated 1 h, LPS 100 ng/mL 18-24 h, relative to stimulated DMSO control; for inhibition at 1 µM: compound concentration 1 μM; for inhibition at 0.1 µM: compound concentration 0.1 μM. The gist of the method:
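Thawed human PBMCs (200,000/well) in RPMI/10% FBS were pretreated with compound or DMSO for 1 h, then stimulated with LPS (100 ng/mL) for 18-24 h. Supernatant TNF-α was measured by Meso Scale; activity expressed as percent of stimulated DMSO control (percent inhibition).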

The next experiment has as its target T1, PDE4B (Homo sapiens, UniProt Q07343).
T1 construct: Whole cell extracts were prepared using an immunoprecipitation (IP) lysis buffer; endogenous in cells; host or cells: A549
Kind of experiment: Protein degradation assay in A549 cells, western blot, PDE4B. Type of experiment: cell-based. To be noted: 24 h treatment, read-out: PDE4B degradation relative to DMSO. As to the method:
(§1) A549 cells were grown in RPMI 1640 media supplemented with 10% fetal bovine serum, streptomycin, and penicillin. The cells were plated in 6-well plates in the growth media. The next day, fresh growth media were replaced on the cells. The cells were then treated with a compound for 24 h at predetermined concentrations. Whole cell extracts were prepared using an immunoprecipitation (IP) lysis buffer. Briefly, the cells were washed once in PBS, and the cell pellets were resuspended in the IP lysis buffer and incubated for 15 min on ice. Cells debris was removed by centrifugation and the cleared whole cell lysates were transferred to new tubes for further analysis.
(§2) For a western blot analysis, the whole cell protein extracts were separated on 4-12% SDS-polyacrylamide gels, transferred to nitrocellulose, and probed with primary antibodies. Membranes were subsequently washed and probed with IRDYE® secondary antibodies. The signals were detected using an ODYSSEY® Imaging System. The antibodies used in the assay included anti-PDE4B antibody; anti-PDE4D antibodies (top, bottom, and short isoform); β-actin mouse monoclonal antibody; IRDYE® 680RD goat anti-rabbit antibody; and IRDYE® 800CW goat anti-mouse antibody. Compounds B2 to B4, B18, B49 to B52, B76, B77, B79, B81 to B83, B88, B89, and B91 were determined to be able to degradate PDE4B as high as about 50% relative to DMSO.

A further experiment relates to PDE4D short isoform. Description: Protein degradation assay in A549 cells, western blot, PDE4D. Format: cell-based. To be noted: 24 h treatment, same conditions. As to the method:
as §1, §2

The structures appear in SMILES notation.

T1 sequence (Q07343 whole entry): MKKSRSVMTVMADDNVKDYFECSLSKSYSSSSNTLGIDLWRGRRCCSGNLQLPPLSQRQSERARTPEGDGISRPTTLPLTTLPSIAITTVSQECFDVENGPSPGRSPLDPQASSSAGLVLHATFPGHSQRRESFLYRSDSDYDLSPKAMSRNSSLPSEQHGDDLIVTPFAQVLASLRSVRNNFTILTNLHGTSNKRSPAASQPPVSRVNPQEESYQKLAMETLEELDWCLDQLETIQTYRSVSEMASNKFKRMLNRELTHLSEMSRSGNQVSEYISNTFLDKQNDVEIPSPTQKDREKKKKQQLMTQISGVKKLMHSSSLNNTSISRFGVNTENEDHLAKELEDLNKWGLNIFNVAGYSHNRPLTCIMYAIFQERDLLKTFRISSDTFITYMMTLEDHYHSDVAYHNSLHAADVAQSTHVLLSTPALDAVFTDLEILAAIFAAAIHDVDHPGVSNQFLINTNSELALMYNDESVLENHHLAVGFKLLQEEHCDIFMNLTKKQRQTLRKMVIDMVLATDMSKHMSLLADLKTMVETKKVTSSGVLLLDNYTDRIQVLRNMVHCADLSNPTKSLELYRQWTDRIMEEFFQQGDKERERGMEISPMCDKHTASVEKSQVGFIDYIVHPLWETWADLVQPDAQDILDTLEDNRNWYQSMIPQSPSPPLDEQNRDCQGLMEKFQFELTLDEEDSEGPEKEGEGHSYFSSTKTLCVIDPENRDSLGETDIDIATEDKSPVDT

As to `COc1ccc(N2Cc3ccccc3C2=O)cc1OCCCCCCCN1CCC(c2cc(F)cc3c2CN(C2CCC(=O)NC2=O)C3=O)CC1` (centres unmarked) [Compound B49, 3-(6-Fluoro-4-(1-(7-(2-methoxy-5-(1-oxoisoindolin-2-yl)phenoxy)heptyl)piperidin-4-yl)-1-oxoisoindolin-2-yl)piperidine-2,6-dione], in the experiment on TNF-α, the inhibition at 1 µM was below 20%. At PDE4B, the Dmax was at most 50%.

Regarding `O=C1CCC(N2Cc3c(cc(F)cc3C3CCN(CCCCCCCOc4ccc(N5Cc6ccccc6C5=O)cc4OC4CCCC4)CC3)C2=O)C(=O)N1` (centres unmarked) [Compound B50, 3-(4-(1-(7-(2-(Cyclopentyloxy)-4-(1-oxoisoindolin-2-yl)phenoxy)heptyl)piperidin-4-yl)-6-fluoro-1-oxoisoindolin-2-yl)piperidine-2,6-dione], the inhibition at 1 µM in the experiment on TNF-α was below 20%. In addition, the Dmax on PDE4B is at most 50%.

Regarding `COc1ccc(N2C(=O)c3ccccc3C2=O)cc1OCCCCCCCN1CCC(c2cc(F)cc3c2CN(C2CCC(=O)NC2=O)C3=O)CC1` (centres unmarked) [Compound B51, 2-(3-((7-(4-(2-(2,6-Dioxopiperidin-3-yl)-6-fluoro-1-oxoisoindolin-4-yl)piperidin-1-yl)heptyl)oxy)-4-methoxyphenyl)isoindoline-1,3-dione], the inhibition at 1 µM in the experiment with TNF-α is 20 to 40%. The Dmax at PDE4B was at most 50%.

On to `COc1ccc(N2C(=O)c3ccc(N)cc3C2=O)cc1OCCCCCCCN1CCC(c2cc(F)cc3c2CN(C2CCC(=O)NC2=O)C3=O)CC1` (centres unmarked) [Compound B52, 5-Amino-2-(3-((7-(4-(2-(2,6-dioxopiperidin-3-yl)-6-fluoro-1-oxoisoindolin-4-yl)piperidin-1-yl)heptyl)oxy)-4-methoxyphenyl)isoindoline-1,3-dione], for which the inhibition at 1 µM with TNF-α was below 20%. The Dmax on PDE4B was at most 50%.

For `Cc1ncsc1-c1ccc(CNC(=O)[C@@H]2C[C@@H](O)CN2C(=O)[C@@H](NC(=O)CCCCCCCCCCOc2cc(C(=O)Nc3c(Cl)cncc3Cl)ccc2OC(F)F)C(C)(C)C)cc1` [Compound B76, (2S,4R)-1-((S)-2-(11-(5-((3,5-Dichloropyridin-4-yl)carbamoyl)-2-(difluoromethoxy)phenoxy)undecanamido)-3,3-dimethylbutanoyl)-4-hydroxy-N-(4-(4-methylthiazol-5-yl)benzyl)pyrrolidine-2-carboxamide], in the experiment on TNF-α, the inhibition at 0.1 µM is at least 60% and the inhibition at 1 µM was at least 60%. Further, at PDE4B, the Dmax is at most 50%.

Take `CCOc1cc([C@@H](CS(C)(=O)=O)N2C(=O)c3cccc(NC(=O)CCCCCCCCN4CCC(c5cc(F)cc6c5CN(C5CCC(=O)NC5=O)C6=O)CC4)c3C2=O)ccc1OC` (stereo partly drawn) [Compound B77, 9-(4-(2-(2,6-Dioxopiperidin-3-yl)-6-fluoro-1-oxoisoindolin-4-yl)piperidin-1-yl)-N-(2-((S)-1-(3-ethoxy-4-methoxyphenyl)-2-(methylsulfonyl)ethyl)-1,3-dioxoisoindolin-4-yl)nonanamide]: in the experiment on TNF-α, the inhibition at 0.1 µM lay in the range of 40 to 60% and the inhibition at 1 µM is at least 60%. Moreover, on PDE4B, the Dmax is at most 50%.

On to `CCOc1cc([C@@H](CS(C)(=O)=O)N2C(=O)c3cc(CCCCCCCCCCCCN4CCC(c5cc(F)cc6c5CN(C5CCC(=O)NC5=O)C6=O)CC4)cc(NC(C)=O)c3C2=O)ccc1OC` (stereo partly drawn) [Compound B79, N-(6-(12-(4-(2-(2,6-Dioxopiperidin-3-yl)-6-fluoro-1-oxoisoindolin-4-yl)piperidin-1-yl)dodecyl)-2-((S)-1-(3-ethoxy-4-methoxyphenyl)-2-(methylsulfonyl)ethyl)-1,3-dioxoisoindolin-4-yl)acetamide], for which, in the experiment with TNF-α, the inhibition at 0.1 µM is at least 60% and the inhibition at 1 µM is at least 60%. Also, the Dmax on PDE4B is at most 50%.

Take `O=C1CCC(N2Cc3c(cc(F)cc3C3CCN(CCCOc4cc(C(=O)Nc5c(Cl)cncc5Cl)ccc4OC(F)F)CC3)C2=O)C(=O)N1` (centres unmarked) [Compound B83, N-(3,5-Dichloropyridin-4-yl)-4-(difluoromethoxy)-3-(3-(4-(2-(2,6-dioxopiperidin-3-yl)-6-fluoro-1-oxoisoindolin-4-yl)piperidin-1-yl)propoxy)benzamide]: the inhibition at 1 µM in the experiment on TNF-α lay in the range of 20 to 40%. Further, on PDE4B, the Dmax is at most 50%.

For the molecule `CCOc1cc([C@@H](CS(C)(=O)=O)N2C(=O)c3cccc(NC(C)=O)c3C2=O)ccc1OC` [apremilast], in the experiment on PDE4D short isoform, the “PDE4D degradation (result in words)” value is “did not degradate the PDE4D”.

These data come from patent US12522612B2, “PDE4 inhibitors, pharmaceutical compositions, and therapeutic applications” (BioTheryX, Inc., priority 2019, dated 2026).
